Source: paper PMC3694296, “11β-Hydroxysteroid dehydrogenase type 1 contributes to the balance between 7-keto- and 7-hydroxy-oxysterols in vivo” (Biochemical Pharmacology, 2013)

Columns and labels:
[1] = molecular target: T1, 11β-hydroxysteroid dehydrogenase type 1 (murine 11βHSD1, m11βHSD1) (Mus musculus, UniProt P50172); test: competitive inhibition of 11-DHC reduction by recombinant enzyme (Dixon plot, HPLC); also itself reduced as a poor substrate (Km […]); assay type: biochemical
T1 construct: gene Hsd11b1; truncated form of recombinant m11βHSD1 protein (N23Δ)
T1 sequence (P50172 24-292): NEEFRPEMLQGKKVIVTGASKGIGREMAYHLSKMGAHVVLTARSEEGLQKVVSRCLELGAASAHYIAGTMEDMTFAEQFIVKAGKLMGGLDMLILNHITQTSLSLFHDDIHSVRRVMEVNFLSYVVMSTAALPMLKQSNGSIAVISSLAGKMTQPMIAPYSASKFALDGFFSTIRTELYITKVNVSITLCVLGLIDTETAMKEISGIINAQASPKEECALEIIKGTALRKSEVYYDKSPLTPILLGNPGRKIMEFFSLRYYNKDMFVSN

[2] = molecular target: T1, 11β-hydroxysteroid dehydrogenase type 1 (murine 11βHSD1, m11βHSD1); test: competitive inhibition of corticosterone oxidation by recombinant enzyme (Dixon plot, HPLC); also itself oxidised as a poor substrate (Km […]); assay type: biochemical

Compound	Ki [1]	Ki [2]
CC(C)CCC[C@@H](C)[C@H]1CC[C@H]2[C@@H]3C(=O)C=C4C[C@@H](O)CC[C@]4(C)[C@H]3CC[C@]12C [7KC, 7-ketocholesterol]	7.33 ± 1.76 µM	–
CC(C)CCC[C@@H](C)[C@H]1CC[C@H]2[C@@H]3[C@@H](O)C=C4C[C@@H](O)CC[C@]4(C)[C@H]3CC[C@]12C [7βOHC, 7β-hydroxycholesterol]	–	0.91 ± 0.05 µM
